Here are results for 19 compounds from patent US9643930B2, “Substituted indazole derivatives as in vitro MAO-B inhibitors” (“NTZ LAB” LTD., priority 2013, dated 2017).

Data set [1] concerns the target T1, rat MAO-A (Rattus norvegicus, UniProt P21396).
T1 construct: from tissue; host or cells: rat liver mitochondria (male Sprague-Dawley rats)
T1 sequence (P21396 1-526): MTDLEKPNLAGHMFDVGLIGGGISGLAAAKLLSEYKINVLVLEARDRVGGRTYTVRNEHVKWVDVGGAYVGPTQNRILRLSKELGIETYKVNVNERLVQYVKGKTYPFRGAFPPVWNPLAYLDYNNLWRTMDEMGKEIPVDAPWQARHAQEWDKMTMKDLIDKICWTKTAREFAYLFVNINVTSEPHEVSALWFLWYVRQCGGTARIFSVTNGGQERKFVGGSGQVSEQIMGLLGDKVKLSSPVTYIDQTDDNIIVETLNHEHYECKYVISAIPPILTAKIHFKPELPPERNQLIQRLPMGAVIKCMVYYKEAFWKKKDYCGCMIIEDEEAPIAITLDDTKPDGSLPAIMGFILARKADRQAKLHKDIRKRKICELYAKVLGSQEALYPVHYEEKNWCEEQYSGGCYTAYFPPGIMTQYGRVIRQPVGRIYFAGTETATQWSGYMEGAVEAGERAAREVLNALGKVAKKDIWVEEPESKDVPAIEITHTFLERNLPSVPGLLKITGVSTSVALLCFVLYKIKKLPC
In words: Rat MAO-A assay (Amplex Red fluorescence, rat liver mitochondria pre-treated with deprenyl). The data set is classed as biochemical. The settings on record: for inhibition at 10 µM: read-out: rat MAO-A (rat liver mitochondria) % inhibition at 10 μM.
Procedure: (§1) Male Sprague-Dawley (Harlan Sprague Dawley, Dublin, Va., US) rats (250-300 g) were sacrificed under light anesthesia and their livers were dissected. […] After homogenization, the volume is adjusted to 100 mL with the same buffer. After a low speed centrifugation (10 min at 600 g; 4° C.), the supernatant is further centrifuged at 15,000 rpm for 5 min at +4° C. The resulting pellet was resuspended in 2.0 mL of a 50 mM sodium/phosphate buffer (pH 7.4) and stored at −80° C. in aliquots of 1.0 mL each until further use.
(§2) The Amplex® Red reagent was prepared as recommended in the kit from Invitrogen (A12214). […] Clorgyline (1.0 μM) from Sigma Aldrich (M3778) was used to determine non-MAO-A enzyme activity and concentration-response curves of clorgyline serve as positive control.

In data set [2] the target is T2, human MAO-A (Homo sapiens, UniProt P21397).
T2 sequence (P21397 1-527): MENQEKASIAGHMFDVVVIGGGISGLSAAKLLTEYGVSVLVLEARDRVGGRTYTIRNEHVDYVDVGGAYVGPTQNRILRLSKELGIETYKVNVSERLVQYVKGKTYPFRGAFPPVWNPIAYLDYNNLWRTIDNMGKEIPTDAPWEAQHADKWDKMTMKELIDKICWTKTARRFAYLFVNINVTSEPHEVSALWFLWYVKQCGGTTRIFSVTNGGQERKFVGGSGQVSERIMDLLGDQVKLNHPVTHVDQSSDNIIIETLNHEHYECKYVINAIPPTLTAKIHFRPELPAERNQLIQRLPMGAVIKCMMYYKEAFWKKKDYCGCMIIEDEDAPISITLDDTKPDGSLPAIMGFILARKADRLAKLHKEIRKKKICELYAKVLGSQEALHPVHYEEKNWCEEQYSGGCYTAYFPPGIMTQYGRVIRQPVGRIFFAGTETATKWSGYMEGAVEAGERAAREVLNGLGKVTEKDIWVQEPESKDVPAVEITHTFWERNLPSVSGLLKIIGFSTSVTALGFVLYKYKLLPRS
As to the kind of experiment: Human MAO-A assay (recombinant enzyme, Amplex Red fluorescence). The settings on record: for inhibition at 10 µM: read-out: human MAO-A % inhibition at 10 μM.

Data set [3] addresses T3, rat MAO-B (Rattus norvegicus, UniProt P19643).
T3 construct: from tissue; host or cells: rat liver mitochondria (male Sprague-Dawley rats)
T3 sequence (P19643 1-520): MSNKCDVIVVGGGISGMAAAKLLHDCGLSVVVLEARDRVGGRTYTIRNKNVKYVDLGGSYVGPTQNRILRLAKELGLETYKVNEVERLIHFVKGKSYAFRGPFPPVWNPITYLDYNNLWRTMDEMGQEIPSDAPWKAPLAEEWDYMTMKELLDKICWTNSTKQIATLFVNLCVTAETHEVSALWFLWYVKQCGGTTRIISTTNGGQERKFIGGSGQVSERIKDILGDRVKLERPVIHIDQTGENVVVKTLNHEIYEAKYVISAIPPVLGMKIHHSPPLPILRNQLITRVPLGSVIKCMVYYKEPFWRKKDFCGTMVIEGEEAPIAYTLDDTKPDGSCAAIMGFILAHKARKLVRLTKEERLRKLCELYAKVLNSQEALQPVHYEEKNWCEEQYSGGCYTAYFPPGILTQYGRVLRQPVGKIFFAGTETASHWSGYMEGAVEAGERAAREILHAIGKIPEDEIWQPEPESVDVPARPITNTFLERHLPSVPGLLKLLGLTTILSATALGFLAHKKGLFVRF
In words: Rat MAO-B assay (Amplex Red fluorescence, rat liver mitochondria pre-treated with clorgyline 30 nM). The class given is biochemical.
Procedure: as §1, §2

The target of data set [4] is T4, human MAO-B (Homo sapiens, UniProt P27338).
T4 sequence (P27338 1-520): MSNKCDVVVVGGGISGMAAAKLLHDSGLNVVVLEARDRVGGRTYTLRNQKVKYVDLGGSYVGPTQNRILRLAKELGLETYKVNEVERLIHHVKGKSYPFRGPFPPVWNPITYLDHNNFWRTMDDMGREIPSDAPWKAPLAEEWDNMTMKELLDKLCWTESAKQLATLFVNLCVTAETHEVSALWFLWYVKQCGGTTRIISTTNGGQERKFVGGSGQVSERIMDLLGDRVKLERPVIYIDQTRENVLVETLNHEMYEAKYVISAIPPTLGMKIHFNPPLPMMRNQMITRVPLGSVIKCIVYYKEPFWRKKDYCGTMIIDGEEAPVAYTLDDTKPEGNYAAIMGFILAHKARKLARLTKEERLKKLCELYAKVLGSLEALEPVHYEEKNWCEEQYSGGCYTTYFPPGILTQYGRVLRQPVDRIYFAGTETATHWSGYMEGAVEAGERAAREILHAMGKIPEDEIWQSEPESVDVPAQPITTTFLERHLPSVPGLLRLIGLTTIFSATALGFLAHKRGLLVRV
In words: Human MAO-B assay (recombinant enzyme, Amplex Red fluorescence). Also on record: purchased Sigma-Aldrich M7441; host or cells: baculovirus-infected insect cells (microsomal product). The class given is biochemical. The settings on record: p-tyramine 150 μM.

Setting [5] is: at 10 μM, rat liver mitochondria.
Where [6] appears, read: rat liver mitochondria, substrate p-tyramine, read-out: rat MAO-A (rat liver mitochondria) IC50.
Where [7] appears, read: rat liver mitochondria pre-treated with clorgyline 30 nM, read-out: rat MAO-B (rat liver mitochondria) IC50.
The mark [8] stands for this setting: read-out: human MAO-A IC50, recombinant human enzyme, p-tyramine 150 μM.

Read-outs that look alike come from different tables or passages of the source.

For orientation: inhibition means the percentage by which the read-out fell short of the control. As a reminder, the melting point is the temperature, or range, at which the solid turns liquid. The term IC50 denotes the concentration needed to halve the response being measured.

With `O=C(Nc1ccc(Cl)c(Cl)c1)c1ccc2[nH]ncc2c1` [Example 1], the inhibition at 10 µM in data set [1] (setting [5]) worked out at 42%; in data set [2], 46%.

`O=C(Nc1ccc(Cl)c(Cl)c1)c1ccc2[nH]ccc2c1` [Example 2, N-(3,4-dichlorophenyl)-1H-indole-5-carboxamide] came in with a melting point of 233.8 to 234.8 °C. Besides, in data set [1] (setting [5]), the inhibition at 10 µM was 70%. For the same compound, the inhibition at 10 µM in data set [2] was 88%.

As for `O=C(Nc1cc(Cl)cc(Cl)c1)c1ccc2[nH]ncc2c1` [Example 8, N-(3,5-dichlorophenyl)-1H-indazole-5-carboxamide], the melting point lay in the range of 302.7 to 304.8 °C. Besides, in data set [1] (setting [5]), the inhibition at 10 µM was determined as 5%. Besides, in data set [2], the IC50 was < 10000 nM and the inhibition at 10 µM amounted to 65%.

Turning to `O=C(Nc1ccc(F)c(Cl)c1)c1ccc2[nH]ncc2c1` [Example 9, N-(3-chloro-4-fluorophenyl)-1H-indazole-5-carboxamide], the IC50 in data set [1] (setting [6]) and in data set [2] was > 10000 nM each time. Further, the inhibition at 10 µM in data set [1] (setting [5]) turned out to be 17%; in data set [2] it was 40%.

Turning to `O=C(Nc1ccc(Cl)c(F)c1)c1ccc2[nH]ncc2c1` [Example 10, N-(4-chloro-3-fluorophenyl)-1H-indazole-5-carboxamide], the IC50 in data set [1] (setting [6]) was > 10000 nM; in data set [3] (setting [7]), 2.61 ± 0.68 nM; in data set [2], < 10000 nM; in data set [4], 0.668 ± 0.053 nM. In addition, the inhibition at 10 µM in data set [1] (setting [5]) was 30%; in data set [2] it was 55%.

`O=C(Nc1ccc(F)c(F)c1)c1ccc2[nH]ncc2c1` [Example 11, N-(3,4-difluorophenyl)-1H-indazole-5-carboxamide]: the IC50 in data set [1] (setting [6]) was > 10000 nM; in data set [3] (setting [7]), 8.89 ± 0.05 nM; in data set [2], > 10000 nM; in data set [4] it was 1.59 ± 0.16 nM. Moreover, the figures for the inhibition at 10 µM in data set [1] (setting [5]) and in data set [2] were 13% and 36%, respectively.

On to `O=C(Nc1cnc(Cl)c(Cl)c1)c1ccc2[nH]ncc2c1` [Example 12, N-(5,6-dichloropyridin-3-yl)-1H-indazole-5-carboxamide], for which the IC50 is < 10000 nM in data set [1] (setting [6]), 26.6 ± 1.5 nM in data set [3] (setting [7]), < 10000 nM in data set [2] and 5.42 ± 0.2 nM in data set [4]. In addition, the inhibition at 10 µM in data set [1] (setting [5]) was 59%; in data set [2], 52%.

Regarding `Cn1cc2cc(C(=O)Nc3ccc(Cl)c(Cl)c3)ccc2n1` [Example 14, N-(3,4-dichlorophenyl)-2-methyl-2H-indazole-5-carboxamide], the IC50 worked out at 22.5 ± 0.6 nM in data set [3] (setting [7]) and 1.44 ± 0.41 nM in data set [4].

Take `Cn1ccc2cc(C(=O)Nc3ccc(Cl)c(Cl)c3)ccc21` [Example 16, N-(3,4-dichlorophenyl)-1-methyl-1H-indole-5-carboxamide]: the melting point lay in the range of 178.9 to 180.3 °C. Further, in data set [1] (setting [5]), the inhibition at 10 µM turned out to be 3%. Also, the inhibition at 10 µM in data set [2] came out at 13%.

Consider `Cn1ncc2cc(C(=O)Nc3ccc(F)c(Cl)c3)ccc21` [Example 17, N-(3-chloro-4-fluorophenyl)-1-methyl-1H-indazole-5-carboxamide], for which, in data set [1], the inhibition at 10 µM is 29%. Besides, the IC50 in data set [3] (setting [7]) came to 1.36 ± 0.13 nM.

Take `Cn1cc2cc(C(=O)Nc3ccc(F)c(Cl)c3)ccc2n1` [Example 18, N-(3-chloro-4-fluorophenyl)-2-methyl-2H-indazole-5-carboxamide]: the IC50 in data set [1] (setting [6]) was determined as 1690 ± 143 nM; in data set [3] (setting [7]), 20.3 ± 3 nM; in data set [2] (setting [8]), 562 ± 62 nM; in data set [4], 8.08 ± 1.05 nM. Moreover, the inhibition at 10 µM in data set [1] (setting [5]) was 90%; in data set [2], 95%.

As for `Cn1ncc2cc(C(=O)Nc3ccc(F)c(F)c3)ccc21` [Example 19, N-(3,4-difluorophenyl)-1-methyl-1H-indazole-5-carboxamide], the IC50 in data set [1] (setting [6]) is > 10000 nM; in data set [3] (setting [7]), 5.65 ± 0.48 nM; in data set [2], > 10000 nM; in data set [4], 1.52 ± 0.18 nM. Moreover, the inhibition at 10 µM in data set [1] (setting [5]) came to 18%; in data set [2] it was 46%.

Consider `Cn1cc2cc(C(=O)Nc3ccc(F)c(F)c3)ccc2n1` [Example 20, N-(3,4-difluorophenyl)-2-methyl-2H-indazole-5-carboxamide], for which the IC50 in data set [1] (setting [6]) stood at 1880 ± 93 nM; in data set [3] (setting [7]), 221 ± 21 nM; in data set [2] (setting [8]), 764 ± 40 nM; in data set [4], 38.4 ± 1.8 nM. Further, the inhibition at 10 µM in data set [1] (setting [5]) is 83%.

Turning to `COCCn1ncc2cc(C(=O)Nc3ccc(Cl)c(Cl)c3)ccc21` [Example 21, N-(3,4-dichlorophenyl)-1-(2-methoxyethyl)-1H-indazole-5-carboxamide], the IC50 in data set [1] (setting [6]) is < 10000 nM. Besides, the inhibition at 10 µM in data set [1] (setting [5]) is 57%; in data set [2], 81%.

With `Clc1ccc(/N=C/c2ccc3[nH]ncc3c2)cc1Cl` [Example 22, (E)-N-((1H-indazol-5-yl)methylene)-3,4-dichloroaniline], the inhibition at 10 µM is 43% in data set [1] (setting [5]) and 62% in data set [2].

As for `Fc1cc(/N=C/c2ccc3[nH]ncc3c2)ccc1Cl` [Example 23, (E)-N-((1H-indazol-5-yl)methylene)-4-chloro-3-fluoroaniline], the IC50 in data set [1] is > 10000 nM; in data set [3], 25.2 ± 0.11 nM; in data set [2], > 10000 nM; in data set [4], 1.91 ± 0.27 nM. In addition, the inhibition at 10 µM in data set [1] (setting [5]) was determined as 27%; in data set [2] it was 44%.

As to `Fc1ccc(/N=C/c2ccc3[nH]ncc3c2)cc1Cl` [Example 24, (E)-N-((1H-indazol-5-yl)methylene)-3-chloro-4-fluoroaniline], the IC50 in data set [1] was > 10000 nM; in data set [3], 6.08 ± 0.52 nM; in data set [2], < 10000 nM; in data set [4], 2.1 ± 0.3 nM. The inhibition at 10 µM in data set [1] (setting [5]) is 35%; in data set [2], 54%.

In the case of `Clc1cc(/N=C/c2ccc3[nH]ncc3c2)cnc1Cl` [Example 25, (E)-N-((1H-indazol-5-yl)methylene)-5,6-dichloropyridin-3-amine], the IC50 in data set [1] is > 10000 nM; in data set [3] it was 1.48 ± 0.07 nM; in data set [2], < 10000 nM; in data set [4], 0.474 ± 0.02 nM. For the same compound, the inhibition at 10 µM in data set [1] (setting [5]) stood at 45%; in data set [2], 67%.

Turning to `Cn1ncc2cc(/C=N/c3ccc(Cl)c(Cl)c3)ccc21` [Example 26, (E)-3,4-dichloro-N-((1-methyl-1H-indazole-5-yl)methylene)aniline], the inhibition at 10 µM in data set [1] (setting [5]) stood at 23%; in data set [2], 57%.
